This is an account of results in ChEMBL document CHEMBL1201862, “PubChem BioAssay data set” (2004).

Some test systems named below: SF-539; OVCAR-5; SK-MEL-2; NCI-H23; NCI-H226; SW-620; COLO 205; OVCAR-8; NCI/ADR-RES; SK-MEL-28; HCT-15; MDA-MB-435; CAKI-1; PC-3; A498; UACC-62; Hs-578T; SK-OV-3; SNB-75; NCI-H522.
Holding throughout (test): DTP human tumour cell line panel, 48 h

Each structure is given as a SMILES string.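 The compound was tested at five concentrations on cells cultured in 96-well plates, with a 48-hour exposure period. GI50: concentration for 50% inhibition of growth.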 Activity calls are given as the source filed them. Rule as the data show it: active = GI50 up to about 1.1 µM and inactive = higher.

Take `CC1(C)C2CC1C(/C=N\OCC(=O)O)=CC2=O` (stereo not drawn): the GI50 with SF-539, in the assay with OVCAR-5, in the assay with SK-MEL-2, in the assay on NCI-H23, with NCI-H226 and in the assay on SW-620 was > 100 µM (inactive) in each case. In addition, the GI50 in the assay with COLO 205 is > 100 µM (inactive); in the assay with OVCAR-8, > 100 µM (inactive); in the assay on NCI/ADR-RES, > 100 µM (inactive); with SK-MEL-28, > 100 µM (inactive); in the assay with HCT-15 it was greater than 100 µM; with MDA-MB-435, > 100 µM (inactive). Besides, the GI50 in the assay on CAKI-1, with PC-3, with A498, with UACC-62, with Hs-578T and in the assay with SK-OV-3 was > 100 µM (inactive) in each case.

Consider `O=S(=O)(c1ccc(/N=C2\NC(c3ccc(O)cc3)(c3ccccc3O)c3ccccc32)cc1)c1ccc(/N=C2/NC(c3ccc(O)cc3)(c3ccccc3O)c3ccccc32)cc1` (stereo not drawn), for which the GI50 with SF-539 is 2.75 µM (inactive); in the assay with OVCAR-5 it was 9.27 µM (inactive); with SK-MEL-2, 3.73 µM (inactive); in the assay on NCI-H23, 2.62 µM (inactive); in the assay on NCI-H226 it was 2.5 µM (inactive); with COLO 205, 3.56 µM (inactive). In addition, the GI50 with OVCAR-8 was 3.33 µM (inactive); in the assay with NCI/ADR-RES it was 24.7 µM (inactive); in the assay on SNB-75, 3.32 µM (inactive); with NCI-H522, 2.02 µM (inactive); in the assay on HCT-15 it was 5.79 µM; in the assay with CAKI-1 it was 12.9 µM (inactive). Besides, the GI50 with PC-3 was 5.05 µM (inactive); in the assay with A498 it was 11.9 µM (inactive); with UACC-62 it was 3.85 µM (inactive); with Hs-578T, 3.4 µM (inactive); in the assay on SK-OV-3 it was 9.82 µM (inactive).

In the case of `N#Cc1[nH]c(=O)n(-c2cccc3ccccc23)c1N`, the GI50 in the assay on SF-539, in the assay with OVCAR-5, with SK-MEL-2, with NCI-H23, in the assay on SW-620 and in the assay with COLO 205 was > 10 µM (inactive) each time. The GI50 was > 10 µM (inactive) in the assay on OVCAR-8; > 10 µM (inactive) in the assay on NCI/ADR-RES; > 10 µM (inactive) in the assay on NCI-H522; > 10 µM (inactive) with SK-MEL-28; greater than 10 µM with HCT-15; > 10 µM (inactive) with MDA-MB-435. Besides, the GI50 in the assay with CAKI-1, with PC-3, with A498, in the assay with UACC-62, with Hs-578T and with SK-OV-3 was > 10 µM (inactive) throughout.

Consider `COc1ccc(/C=C2\N=C(N3CCOCC3)NC2=O)cc1`, for which the GI50 in the assay with SF-539, in the assay with OVCAR-5, in the assay with SK-MEL-2, with NCI-H23, in the assay on NCI-H226 and in the assay with SW-620 was > 100 µM (inactive) each time. For the same molecule, the GI50 with COLO 205 was > 100 µM (inactive); in the assay with OVCAR-8, > 100 µM (inactive); with NCI/ADR-RES it was > 100 µM (inactive); with SNB-75, 58.3 µM (inactive); in the assay with NCI-H522 it was > 100 µM (inactive); in the assay with SK-MEL-28 it was > 100 µM (inactive). Besides, the GI50 is greater than 100 µM in the assay with HCT-15; > 100 µM (inactive) in the assay on MDA-MB-435; > 100 µM (inactive) in the assay with CAKI-1; > 100 µM (inactive) in the assay on PC-3; > 100 µM (inactive) in the assay on UACC-62; > 100 µM (inactive) with Hs-578T. The GI50 in the assay with SK-OV-3 was > 100 µM (inactive).

In the case of `CCOC(=O)c1cc2c(C(=O)c3ccc([N+](=O)[O-])cc3)c(C(C)=O)ccc2[nH]1`, the GI50 in the assay with SF-539 was 17.8 µM (inactive); with OVCAR-5, > 100 µM (inactive); with SK-MEL-2, 55.8 µM (inactive); with NCI-H23 it was 50.2 µM (inactive); with NCI-H226 it was 51.4 µM (inactive); in the assay on SW-620 it was > 100 µM (inactive). Moreover, the GI50 in the assay on COLO 205 was > 100 µM (inactive); in the assay with SNB-75, 11.6 µM (inactive); with NCI-H522, 8.2 µM (inactive); in the assay with SK-MEL-28 it was > 100 µM (inactive); with HCT-15, 50 µM; in the assay with MDA-MB-435 it was 7.66 µM (inactive). Further, the GI50 is 18.3 µM (inactive) with CAKI-1; > 100 µM (inactive) in the assay with PC-3; 50.5 µM (inactive) in the assay on A498; > 100 µM (inactive) in the assay on UACC-62; 9.84 µM (inactive) in the assay on Hs-578T; 9.06 µM (inactive) with SK-OV-3.

In the case of `CCOC(=O)CC(=O)C(=O)NN=C1NCCCN1`, the GI50 in the assay on SF-539, in the assay on OVCAR-5, in the assay on SK-MEL-2, in the assay on NCI-H23, in the assay with NCI-H226 and with SW-620 was > 100 µM (inactive) each time. Besides, the GI50 with COLO 205 was > 100 µM (inactive); with OVCAR-8, > 100 µM (inactive); in the assay with SNB-75 it was > 100 µM (inactive); with SK-MEL-28, > 100 µM (inactive); in the assay with HCT-15 it was greater than 100 µM; in the assay with MDA-MB-435 it was > 100 µM (inactive). In addition, the GI50 in the assay with PC-3, in the assay with UACC-62, in the assay on Hs-578T and with SK-OV-3 was > 100 µM (inactive) each time.

With `COC(=O)Oc1nn(C(=O)OC)c(=O)c2ccccc12`, the GI50 in the assay on SF-539 was 61.8 µM (inactive); in the assay with OVCAR-5 it was > 100 µM (inactive); in the assay on SK-MEL-2, > 100 µM (inactive); in the assay on NCI-H23, > 100 µM (inactive); in the assay with NCI-H226 it was > 100 µM (inactive); in the assay on SW-620 it was > 100 µM (inactive). In addition, the GI50 in the assay with COLO 205 was 85.1 µM (inactive); with OVCAR-8, > 100 µM (inactive); in the assay on NCI/ADR-RES, > 100 µM (inactive); with SNB-75, 54.5 µM (inactive); in the assay with NCI-H522, > 100 µM (inactive); in the assay with SK-MEL-28, > 100 µM (inactive). For the same molecule, the GI50 in the assay with HCT-15 was greater than 100 µM; in the assay on MDA-MB-435 it was > 100 µM (inactive); with CAKI-1 it was > 100 µM (inactive); in the assay on PC-3, > 100 µM (inactive); in the assay on UACC-62 it was > 100 µM (inactive); in the assay with Hs-578T, 65.8 µM (inactive). Further, the GI50 in the assay with SK-OV-3 is > 100 µM (inactive).

Consider `COC(=O)C1(NC(=O)C(CC(=O)OCc2ccccc2)NC(=O)OCc2ccccc2)CCCCCC1` (stereo not drawn), for which the GI50 is 23.1 µM (inactive) in the assay on SF-539; 39.2 µM (inactive) in the assay on OVCAR-5; 41.8 µM (inactive) with NCI-H23; 29.4 µM (inactive) in the assay with NCI-H226; 42.8 µM (inactive) in the assay with SW-620; 21.1 µM (inactive) in the assay on COLO 205. Also, the GI50 was 27.2 µM (inactive) in the assay on OVCAR-8; 21 µM (inactive) in the assay with NCI/ADR-RES; 35.1 µM (inactive) with SNB-75; 69.3 µM (inactive) in the assay with NCI-H522; 26.3 µM (inactive) in the assay on SK-MEL-28; 38.1 µM with HCT-15. For the same molecule, the GI50 with MDA-MB-435 is 28.8 µM (inactive); in the assay on CAKI-1 it was 20.8 µM (inactive); with PC-3 it was 28.6 µM (inactive); in the assay on UACC-62 it was 16.4 µM (inactive); in the assay with Hs-578T it was 15.6 µM (inactive); in the assay on SK-OV-3, 35.4 µM (inactive).

Take `O=c1[nH]c(N/N=C\C(O)C(O)C(O)C(O)CO)nc2ccccc12` (stereo not drawn): the GI50 with SF-539, in the assay on OVCAR-5, in the assay with SK-MEL-2, in the assay with NCI-H23, in the assay with NCI-H226 and in the assay on SW-620 was > 100 µM (inactive) each time. Moreover, the GI50 in the assay with COLO 205 is > 100 µM (inactive); in the assay with OVCAR-8, > 100 µM (inactive); with NCI/ADR-RES, > 100 µM (inactive); in the assay on SNB-75, > 100 µM (inactive); in the assay with SK-MEL-28 it was > 100 µM (inactive); in the assay on HCT-15 it was greater than 100 µM. Further, the GI50 with MDA-MB-435, in the assay with CAKI-1, in the assay with PC-3, with A498, in the assay on UACC-62 and in the assay with Hs-578T was > 100 µM (inactive) in each case. The GI50 in the assay on SK-OV-3 was > 100 µM (inactive).

Turning to `CSC1(CC(=O)N2CCCCC2)C(=O)Nc2ccccc21` (stereo not drawn), the GI50 in the assay with SF-539, in the assay on OVCAR-5, in the assay on SK-MEL-2, with NCI-H23, in the assay with NCI-H226 and with SW-620 was > 100 µM (inactive) each time. The GI50 with COLO 205 was > 100 µM (inactive); with NCI/ADR-RES it was > 100 µM (inactive); in the assay with SNB-75, > 100 µM (inactive); in the assay with SK-MEL-28, > 100 µM (inactive); in the assay on HCT-15, greater than 100 µM; in the assay on MDA-MB-435 it was > 100 µM (inactive). Also, the GI50 in the assay with PC-3, in the assay with A498, with UACC-62, in the assay on Hs-578T and with SK-OV-3 was > 100 µM (inactive) in each case.

On to `O=c1[nH]c2ccc(CC(=S)N3CCOCC3)cc2o1`, for which the GI50 in the assay with SF-539, in the assay with OVCAR-5, with SK-MEL-2, with NCI-H23, with NCI-H226 and with SW-620 was > 100 µM (inactive) each time. Further, the GI50 in the assay with COLO 205 was > 100 µM (inactive); in the assay with OVCAR-8, > 100 µM (inactive); in the assay on NCI/ADR-RES, > 100 µM (inactive); in the assay on SNB-75 it was > 100 µM (inactive); in the assay on SK-MEL-28, > 100 µM (inactive); in the assay on HCT-15 it was greater than 100 µM. Moreover, the GI50 in the assay on MDA-MB-435, in the assay with CAKI-1, in the assay on PC-3, in the assay with A498, in the assay on UACC-62 and in the assay with Hs-578T was > 100 µM (inactive) throughout. Besides, the GI50 in the assay with SK-OV-3 is > 100 µM (inactive).
